Measured values reported in the NIST ThermoML archive (doi:10.1021/je049960h).

Assay: xn = mol fraction of the nth substance listed
Conditions: 101.3 kPa, Liquid; for viscosity: Capillary tube (Ostwald / Ubbelohde) method; for mass density: Pycnometric method; for thermal conductivity: Hot wire method

CC(O)CO (stereo unspecified) [1,2-propanediol] + O
Conditions	mass density [kg/m3]	thermal conductivity [W/m/K]	viscosity [mPa·s]
296.65 K, x1 = 0.25	1040	–	7.39
296.8 K, x1 = 0.75	1038	–	32.4
297.05 K, x1 = 0.5	1042	–	17.5
298.5 K, x1 = 0.75	–	0.212	–
298.9 K, x1 = 0.5	–	0.243	–
299.6 K, x1 = 0.25	–	0.322	–
313.05 K, x1 = 0.25	1028	–	3.9
313.05 K, x1 = 0.5	1029	–	8.47
313.05 K, x1 = 0.75	1026	–	14.4
322.1 K, x1 = 0.25	–	0.337	–
323.7 K, x1 = 0.75	–	0.214	–
324.2 K, x1 = 0.5	–	0.25	–
333.1 K, x1 = 0.25	1013	–	2.12
333.1 K, x1 = 0.5	1013	–	4.14
333.1 K, x1 = 0.75	1010	–	6.46
347.2 K, x1 = 0.25	–	0.348	–
348.2 K, x1 = 0.75	–	0.215	–
349.1 K, x1 = 0.5	–	0.254	–
353.05 K, x1 = 0.25	996.5	–	1.32
353.05 K, x1 = 0.5	996.8	–	–
353.05 K, x1 = 0.75	993.8	–	3.45
353.1 K, x1 = 0.5	–	–	2.36
363.3 K, x1 = 0.25	988	–	1.09
363.35 K, x1 = 0.75	985.1	–	2.66
363.4 K, x1 = 0.5	987.9	–	1.84
372.1 K, x1 = 0.25	–	0.353	–
372.1 K, x1 = 0.5	–	0.255	–
372.8 K, x1 = 0.75	–	0.215	–
373.45 K, x1 = 0.25	979.3	–	0.915
378.35 K, x1 = 0.75	971.6	–	1.87
381.55 K, x1 = 0.25	971.3	–	–
383.5 K, x1 = 0.5	970.3	–	1.22
384.15 K, x1 = 0.25	–	–	0.778
388.5 K, x1 = 0.75	963.2	–	1.52
390.55 K, x1 = 0.25	963.4	–	–
394.55 K, x1 = 0.25	–	–	0.657
395.75 K, x1 = 0.5	958.1	–	–
396 K, x1 = 0.75	–	0.214	–
396.4 K, x1 = 0.25	–	0.353	–
397.1 K, x1 = 0.5	–	0.255	–
398.3 K, x1 = 0.75	954.2	–	1.27
398.75 K, x1 = 0.5	–	–	0.952
407.45 K, x1 = 0.5	947.1	–	–
407.75 K, x1 = 0.25	947.5	–	–
408.15 K, x1 = 0.75	944.7	–	1.08
411.45 K, x1 = 0.5	–	–	0.793
411.75 K, x1 = 0.25	–	–	0.525
411.75 K, x1 = 0.75	940.7	–	–
420.2 K, x1 = 0.5	–	0.253	–
420.4 K, x1 = 0.25	–	0.347	–
420.8 K, x1 = 0.75	–	0.212	–
424.55 K, x1 = 0.25	930.2	–	–
424.95 K, x1 = 0.5	929.6	–	–
428.15 K, x1 = 0.75	924.7	–	–
428.95 K, x1 = 0.5	–	–	0.618
429.55 K, x1 = 0.25	–	–	0.426
439.95 K, x1 = 0.5	914.7	–	–
440.4 K, x1 = 0.25	–	0.338	–
440.8 K, x1 = 0.5	–	0.249	–
441.45 K, x1 = 0.75	912.7	–	–
442 K, x1 = 0.75	–	0.21	–
443.95 K, x1 = 0.5	–	–	0.517
444.55 K, x1 = 0.25	908.3	–	–
449.55 K, x1 = 0.25	–	–	0.344

OCCCOCCCO [4-oxa-1,7-heptanediol] + O
Conditions	mass density [kg/m3]	thermal conductivity [W/m/K]	viscosity [mPa·s]
293.4 K, x1 = 0.5	1034	–	59.9
293.9 K, x1 = 0.75	1028	–	88.5
295.05 K, x1 = 0.25	1040	–	22.3
297.8 K, x1 = 0.25	–	0.248	–
297.9 K, x1 = 0.5	–	0.19	–
298.4 K, x1 = 0.75	–	0.167	–
313.05 K, x1 = 0.25	1026	–	9.14
313.05 K, x1 = 0.5	1019	–	18.6
313.05 K, x1 = 0.75	1013	–	25.8
323.9 K, x1 = 0.25	–	0.256	–
324.8 K, x1 = 0.75	–	0.169	–
324.9 K, x1 = 0.5	–	0.193	–
333.1 K, x1 = 0.25	1010	–	4.3
333.1 K, x1 = 0.5	1003	–	7.68
333.1 K, x1 = 0.75	997	–	9.71
349.3 K, x1 = 0.5	–	0.195	–
349.9 K, x1 = 0.25	–	0.26	–
350.1 K, x1 = 0.75	–	0.167	–
353.1 K, x1 = 0.25	992.8	–	2.42
353.1 K, x1 = 0.5	986	–	3.89
353.1 K, x1 = 0.75	980.5	–	4.71
368.25 K, x1 = 0.25	979.2	–	1.72
372.2 K, x1 = 0.5	969.5	–	2.33
372.2 K, x1 = 0.75	964.3	–	2.73
374 K, x1 = 0.25	–	0.264	–
374.9 K, x1 = 0.5	–	0.196	–
375.1 K, x1 = 0.75	–	0.169	–
378.75 K, x1 = 0.25	–	–	1.41
382.5 K, x1 = 0.5	960.1	–	1.85
382.5 K, x1 = 0.75	955.2	–	2.14
392.3 K, x1 = 0.75	946.2	–	1.72
392.4 K, x1 = 0.5	951	–	1.53
394.25 K, x1 = 0.5	949.4	–	–
395.75 K, x1 = 0.5	–	–	1.45
395.95 K, x1 = 0.25	953.1	–	–
397.45 K, x1 = 0.25	–	–	0.983
398.6 K, x1 = 0.25	–	0.263	–
398.9 K, x1 = 0.5	–	0.195	–
399 K, x1 = 0.75	–	0.169	–
402.3 K, x1 = 0.75	936.9	–	1.43
405.35 K, x1 = 0.75	934.5	–	–
406.85 K, x1 = 0.75	–	–	1.33
407.85 K, x1 = 0.5	936.8	–	–
408.35 K, x1 = 0.25	941.3	–	–
410.85 K, x1 = 0.5	–	–	1.11
411.35 K, x1 = 0.25	–	–	0.803
418.35 K, x1 = 0.75	923	–	–
421.35 K, x1 = 0.75	–	–	1.05
423.8 K, x1 = 0.25	–	0.264	–
424.3 K, x1 = 0.75	–	0.167	–
424.4 K, x1 = 0.5	–	0.193	–
426.35 K, x1 = 0.5	918.8	–	–
426.75 K, x1 = 0.25	922.7	–	–
429.35 K, x1 = 0.5	–	–	0.829
429.75 K, x1 = 0.25	–	–	0.63
437.25 K, x1 = 0.75	904.2	–	–
440.25 K, x1 = 0.75	–	–	0.795
444.65 K, x1 = 0.25	904.1	–	–
445.25 K, x1 = 0.5	899.1	–	–
447.65 K, x1 = 0.25	–	–	0.512
448.25 K, x1 = 0.5	–	–	0.64
448.8 K, x1 = 0.5	–	0.187	–
448.9 K, x1 = 0.75	–	0.163	–
455.15 K, x1 = 0.75	887.2	–	–
458.15 K, x1 = 0.75	–	–	0.641

CC(O)COC(C)COC(C)CO (stereo unspecified) [2-[2-(2-hydroxypropoxy)propoxy]-1-propanol] + O
Conditions	mass density [kg/m3]	thermal conductivity [W/m/K]	viscosity [mPa·s]
294.8 K, x1 = 0.5	1028	–	66.6
295.35 K, x1 = 0.75	1021	–	71.2
295.4 K, x1 = 0.25	1037	–	36.7
297.3 K, x1 = 0.25	–	0.215	–
297.7 K, x1 = 0.75	–	0.157	–
298.1 K, x1 = 0.5	–	0.174	–
313.05 K, x1 = 0.25	1023	–	14.2
313.05 K, x1 = 0.5	1013	–	22.4
313.05 K, x1 = 0.75	1007	–	24.6
324.3 K, x1 = 0.25	–	0.22	–
325.2 K, x1 = 0.75	–	0.156	–
325.8 K, x1 = 0.5	–	0.174	–
333.05 K, x1 = 0.25	1006	–	6.27
333.1 K, x1 = 0.5	996.8	–	9.12
333.1 K, x1 = 0.75	990.4	–	9.92
349.1 K, x1 = 0.75	–	0.156	–
349.7 K, x1 = 0.25	–	0.223	–
350.2 K, x1 = 0.5	–	0.175	–
353.05 K, x1 = 0.25	989	–	3.36
353.05 K, x1 = 0.5	979.9	–	4.5
353.1 K, x1 = 0.75	973.7	–	4.93
368.25 K, x1 = 0.25	975.3	–	2.3
368.25 K, x1 = 0.5	966.8	–	2.96
368.25 K, x1 = 0.75	960.5	–	3.21
374.1 K, x1 = 0.25	–	0.224	–
375.1 K, x1 = 0.5	–	0.172	–
375.5 K, x1 = 0.75	–	0.155	–
378.15 K, x1 = 0.25	966.7	–	1.84
378.5 K, x1 = 0.5	957.4	–	2.32
378.55 K, x1 = 0.75	951.3	–	2.53
388.4 K, x1 = 0.5	947.8	–	1.88
388.4 K, x1 = 0.75	942.4	–	2.03
393.05 K, x1 = 0.25	953	–	–
394.05 K, x1 = 0.5	944	–	–
394.55 K, x1 = 0.25	–	–	1.35
395.15 K, x1 = 0.5	–	–	1.67
398.35 K, x1 = 0.75	933.3	–	1.66
398.9 K, x1 = 0.25	–	0.222	–
399 K, x1 = 0.5	–	0.172	–
399.4 K, x1 = 0.75	–	0.152	–
408.3 K, x1 = 0.75	924.3	–	1.44
408.65 K, x1 = 0.5	930.6	–	–
409.05 K, x1 = 0.25	936.6	–	–
411.65 K, x1 = 0.5	–	–	1.26
412.05 K, x1 = 0.25	–	–	1.01
412.45 K, x1 = 0.75	–	–	1.31
414.15 K, x1 = 0.75	918.6	–	–
422.5 K, x1 = 0.75	–	0.15	–
423 K, x1 = 0.25	–	0.22	–
424.5 K, x1 = 0.5	–	0.168	–
426.65 K, x1 = 0.25	918.9	–	–
426.75 K, x1 = 0.5	913.2	–	–
428.25 K, x1 = 0.75	–	–	1.02
429.25 K, x1 = 0.75	904.7	–	–
429.65 K, x1 = 0.25	–	–	0.785
429.75 K, x1 = 0.5	–	–	0.952
445 K, x1 = 0.75	889.5	–	–
446.15 K, x1 = 0.25	897.8	–	–
446.55 K, x1 = 0.75	–	–	0.791
446.85 K, x1 = 0.5	892.5	–	–
448.2 K, x1 = 0.25	–	0.213	–
448.3 K, x1 = 0.5	–	0.164	–
449 K, x1 = 0.75	–	0.144	–
449.15 K, x1 = 0.25	–	–	0.615
449.85 K, x1 = 0.5	–	–	0.738
